Test results taken from patent US20240321457A1, “SYSTEMS FOR AND METHODS OF TREATMENT SELECTION” (THE REGENTS OF THE UNIVERSITY OF CALIFORNIA, priority 2020, published 2024).

Legend:
Gαi = experiment: NanoBiT Gαi1 dissociation assay (split luciferase); format: cell-based; details: 60 minutes
Protocol: The NanoBiT G-protein dissociation assay, based on a split-luciferase system, was performed as previously described with some modifications (Inoue et al., 2019). All DNA constructs were provided by Dr. Asuka Inoue (Tohoku University, Japan). NanoBiT plasmids (pCAGGS) include Gαi1-LgBiT, Gβ1-native, and SmBiT-Gγ2 (CAAX C68S mutant). Gαi-DREADD (pcDNA3.1) was used as a synthetic Gαi-coupled GPCR. Briefly, CAL-33 and HET-1A cells were seeded on poly-D-lysine coated (Sigma, Cat #P7280), opaque, white 96-well plates (Falcon Cat #353296). The following day cells were transfected with NanoBiT and receptor plasmids using Lipofectamine 3000 (ThermoFisher Scientific, Cat #L3000008) according to manufacturer recommendations for a 12-well scale (10 μL transfection mix to each well). The NanoBiT plasmids were mixed at a ratio of 100 ng Gαi1-LgBiT, 500 ng Gβ1, 500 ng SmBiT-Gγ2, and 200 ng of receptor if needed. For gene knockdown experiments, 10 pmol of pooled siControl (Dharmacon, Cat #D-001810-10-20), siFGFR3 (Mission siRNA, Cat #SIHK0780, SIHK0781, SIHK0782), or siDaple (Dharmacon, Cat #L-033364-01-0005) was included in the plasmid mix. Media was changed the following day. Two days after transfection, media was aspirated from each well and washed once with HBSS. Cells were incubated in HBSS with a final concentration of 5 μM native coelenterazine (Biotium, Cat #10110-1) for 30 minutes at room temperature protected from light. Basal luminescence was read and ligand prepared for final concentrations of 10 ng/mL human bFGF (Roche Cat #11123149001) and 10 μM clozapine-N-oxide (Cayman Chemical, Cat #NC1044836). After ligand addition, luminescence was read in kinetic loops (each well ˜every 30 seconds) for 60 minutes total (Tecan Spark). Raw luminescent values were normalized to the corresponding basal value for each well and subsequently to the mean vehicle ratio (raw/basal) at time 0. Significance was calculated using a one-way ANOVA at the 60 minute time point.
To test this idea, a split luciferase assay (Gαi NanoBiT) was used, in which signal is lost upon activation of Gαi and dissociation from Gβγ (FIG. 15C and FIG. 16A). As a control, an engineered Designer Receptor Exclusively Activated by Designer Drugs (DREADD) receptor was first transfected, and the resulting cell population stimulated with the DREADD ligand, clozapine-N-oxide (CNO).
Referring to FIG. 15C, NanoBiT biosensor measures Gαi activation through dissociation of the luciferase split between Gα and Gβγ. CNO mediates canonical GPCR signaling through the synthetic Gαi-coupled DREADD receptor. FGF mediates HNSCC-specific signaling through FGFR3 and Daple.

[1] = tested on: solid tumors with FGFR mRNA overexpression; details: phase I trials; cited from earlier work
PAK1/2 phosphorylation = PAK1/2 phosphorylation immunoblot after FGF stimulation; format: cell-based; details: FGF stimulation 0, 5, 10, 30, 60 minutes
Protocol: (§1) CAL-33 and HET-1A cells were seeded on poly-D-lysine-coated 6-well plates. Cells were transfected with siRNA using Lipofectamine RNAiMAX (Thermo Fisher Scientific, Cat #100014472) according to manufacturer recommendations. After overnight serum starvation, cells were stimulated with vehicle, 10 ng/mL bFGF, or 10 μM CNO. Cells were washed once with PBS and lysed in RIPA buffer (50 mM Tris-HCl pH 6.8, 150 mM NaCl, 1% NP-40, 0.5% sodium deoxycholate, 0.1% SDS) with protease and phosphatase inhibitors (Bimake, Cat #B14001, B15001-A/B). Lysates were briefly sonicated and cleared by centrifugation before boiling in Laemmli sample buffer (Bio-Rad Cat #1610747). After separation on 10% acrylamide gels and transfer to PVDF membranes, membranes were blocked with 2% BSA in TBST before incubating with antibodies. […]
Referring to FIG. 15G, PAK1/2 autophosphorylation was measured by immunoblot analysis over a time course of FGF stimulation (0, 5, 10, 30, 60 minutes) in CAL-33 and HET-1A cells.

ERK phosphorylation = ERK phosphorylation immunoblot after FGF stimulation; format: cell-based; details: FGF 10 ng/mL, time course
Protocol: as §1
Referring to FIG. 16C, ERK phosphorylation over a time course was measured by immunoblotting in CAL-33 and HET-1A cells stimulated with FGF (10 ng/mL).

CAL-33 cells = experiment: Scratch migration assay; format: cell-based; details: fibronectin-plated CAL-33 cells; 10 ng/mL bFGF, 24 hours; versus vehicle
Protocol: CAL-33 cells were seeded on 12-well plates coated with 10 μg/mL fibronectin in PBS (Sigma Aldrich, Cat #F2006-1MG). Once cells reached confluence, a vertical scratch was made with a pipette tip and washed well with PBS before adding serum-free media. Cells were stimulated with vehicle, 10 ng/mL bFGF, or 1% serum for 24 hours. Images were taken at the 0 and 24 hour time points (2× magnification) and the scratch area was quantified using ImageJ. Percent scratch closure was calculated for each well and significance assessed using a one-way ANOVA.
Referring to FIG. 15H, a vertical scratch was introduced to fibronectin-plated CAL-33 cells. Images were taken at 0 and 24 hours after FGF stimulation (scale bar=200 μm). (I) Quantification of replicate scratch closure assays from panel H (*P<0.05 when compared with the vehicle-treated group).

For C[N+]1([O-])CCN(C2=Nc3cc(Cl)ccc3Nc3ccccc32)CC1 [CNO, clozapine-N-oxide], the “Gαi activation (loss of luciferase signal)” value (Gαi; CAL-33 cells expressing Gαi NanoBiT and DREADD receptor, CNO 10 μM) was “Robust Gαi activation” and the “Gαi activation (loss of luciferase signal)” value (Gαi; HET-1A cells expressing Gαi NanoBiT and DREADD receptor, CNO 10 μM) was “Robust Gαi activation”.

In the case of COCc1c(-c2cc3cc(C)cc(OC)c3s2)c2c(N)ncnn2c1CN1CCNC(=O)C1 [rogaratinib], the objective response rate [1] is listed as 67%.

For “FGF: human bFGF (Roche), fibroblast growth factor used as ligand for stimulation”, the “phosphorylation of PAK1/2” value (PAK1/2 phosphorylation; CAL-33 cells) was “results in downstream phosphorylation of PAK1/2”, the “phosphorylation of PAK1/2” value (PAK1/2 phosphorylation; HET-1A cells) was “not observed” and the ERK phosphorylation (ERK phosphorylation; CAL-33 cells) was “rapidly induced ERK phosphorylation”. The ERK phosphorylation (ERK phosphorylation; HET-1A cells) was “rapidly induced ERK phosphorylation”, the “Gαi activation (loss of luciferase signal)” value (Gαi; CAL-33 cells, Gαi NanoBiT, FGF 10 ng/mL) was “induce Gαi activation” and the “Gαi activation (loss of luciferase signal)” value (Gαi; HET-1A cells, Gαi NanoBiT, FGF 10 ng/mL) was “no such activation occurred”. The “cell migration (scratch closure)” value (CAL-33 cells) was “statistically significant increase”.
